Data published in patent US20030166290A1, “Low formaldehyde producing blood diluent” (priority 2002, published 2003).

Assay: Formaldehyde production in test blood diluents containing antimicrobial agents (EPA Method 8315A)
Assay type: physicochemical
Conditions: when employed in the blood diluent of the invention
Procedure: Diluent components into which the listed antimicrobials were added were:
Each test diluent was assayed for formaldehyde production within about two weeks from time of production to determine if formaldehyde is produced. Different lots of the final diluent formulation were monitored for formaldehyde concentration over a year's time. […] This method entails derivitizing the diluent sample with 2,4-dinitrophenylhydrazine to convert the carbonyl groups of aldehydes present to the hydrazones. Each carbonyl compound present in the sample forms a separate hydrazone derivative and these individual derivatives are extracted from the diluent solution using an organic solvent. The individual hydrazone derivatives are separated and quantified by HPLC (High Performance Liquid Chromatography).

formaldehyde produced or contained: ≤ 1 ppm
SMILES: O=[N+]([O-])C1(Br)COCOC1 [5-bromo-5-nitro-1,3-dioxane]
